For series [1] the following is noted: cited from earlier work; for λmax: enol form at lower pH, enolate form at neutral and basic pH.
For series [2] the following is noted: in vitro; cited from earlier work.
Series [3] relates to wild-type RAD1 strain (S288c). Nature of the series: UVB irradiation of wild-type (RAD1) yeast strain suspended in gadusol-containing supernatant. It counts as cell-based, S. cerevisiae. As to conditions: higher doses of UVB; cells in 9-fold concentrated supernatant. From the text: (§1) While it would be possible to harvest gadusol from naturally occurring sources, this would not be economical for producing the quantities of gadusol needed for commercially relevant sunscreen products. To overcome this and other problems, the inventors have developed methods and compositions that allow for the high efficiency production of gadusol in microorganism host cells, such as yeast. Expressing the biosynthetic genes for gadusol in microorganisms, such as yeast, provides an opportunity to leverage in-depth knowledge of yeast biochemistry to generate a sustainable process. […] The mutant was cultured in YNB+2% glucose supplemented with leucine and lysine at 30° C. for 2 days. […] In 20 ml cultures (n=3), the recombinant yeast culture produced approximately 20 mg/I of gadusol after 5 days (FIG. 34). […] Large-scale production allows for the use of gadusol in pharmaceuticals, formulations, cosmetics or dietary formulations and products. By way of example, formulations may include pills/capsules, creams, lotions, or the like. In embodiments, the present disclosure provides for a synthetic gadusol having UV-protective activity. […] Cells were then irradiated with UVB and spotted in 3 μl aliquots (n=4) onto YEPD plates which were incubated at 30° C. for 24 h. […]

Another series has as its system rad1Δ yeast mutant. The series is described as follows: UVB irradiation of UVB-sensitive rad1Δ yeast mutant suspended in gadusol-containing supernatant. The series is classed as cell-based, S. cerevisiae. Particulars: cells at 10^7 cells/mL in 9-fold concentrated supernatant, UVB (302 nm), spotted on YEPD, 24 h at 30° C.
From the text: as §1

[4] abbreviates: Arbeloa et al. 2011, at respective absorbance maxima.

The structures appear in SMILES notation. Read-outs that look alike come from different tables or passages of the source.

`COC1=C(O)CC(O)(CO)C(O)C1=O` (stereo not shown) [gadusol, 3,5,6-trihydroxy-5-hydroxymethyl-2-methoxycyclohex-2-en-1-one]: the extinction coefficient in series [1] (setting [4]) is 12,400 M^−1 cm^−1; in series [1] (pH 7 in 50 mM phosphate, Plack et al. 1981) it was 21,800 M^−1 cm^−1. The λmax in series [1] (Plack et al. 1981) was 269 nm. Besides, in series [2], the antioxidant activity entry is listed as “exhibit antioxidant activity in vitro”. The “UVB tolerance of wild-type (RAD1) strain” value in series [3] was “increases UVB tolerance”. Also, the “UVB sensitivity of rad1Δ yeast mutant” value with rad1Δ yeast mutant is “suppresses the UVB sensitivity”.

For the compound `COC1=C(O)CC(O)(CO)C(O)C1=O` (stereo not shown) [gadusolate], the extinction coefficient in series [1] (setting [4]) is 21,800 M^−1 cm^−1. For the same compound, the “quantum yield of photodecomposition relative to gadusol” value in series [1] (Arbeloa et al. 2011) was 260 times. Besides, the photostability result in series [1] (compared to gadusol) is recorded as “more photostable”. Moreover, the λmax in series [1] (Plack et al. 1981) is listed as 296 nm.

Values taken from patent US11072806B2, “Gadusol production” (Oregon State University, priority 2018, dated 2021).
